The values that follow come from patent US12077503B2, “Substituted cyclic amides and their use as herbicides” (FMC CORPORATION, priority 2015, dated 2024).

Common to all, as to format: in vivo
One assay has as its system Kochia (Kochia scoparia). As to the kind of experiment: Test A preemergence. To be noted: Bassia scoparia, pre-emergence, 240 h; for pest or weed control at 125 g/ha: 125 g ai/ha, preemergence, 0 to 100 scale where 0 is no effect and 100 is complete control, read-out: Kochia plant response rating; for pest or weed control at 500 g/ha: 500 g ai/ha, Preemergence, visual injury vs untreated controls after approximately 10 d, read-out: Kochia plant response rating (0 to 100 scale where 0 is no effect and 100 is complete control). The essentials:
(§1)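 Seeds sprayed preemergence with a directed soil spray, or plants at 2 to 10 cm height and one- to two-leaf stage sprayed postemergence, with test chemicals in a non-phytotoxic solvent mixture containing surfactant, in loam soil–sand blend. Injury rated visually against untreated controls after about 10 d in greenhouse, 0 (no effect) to 100 (complete control).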

Assay [1] concerns barnyardgrass (Echinochloa crus-galli). In words: Test A preemergence. To be noted: Echinochloa crus-galli, pre-emergence, 240 h; for pest or weed control at 125 g/ha: 125 g ai/ha, preemergence, 0 to 100 scale where 0 is no effect and 100 is complete control, read-out: Barnyardgrass plant response rating; for pest or weed control at 500 g/ha: 500 g ai/ha, Preemergence, visual injury vs untreated controls after approximately 10 d, read-out: Barnyardgrass plant response rating (0 to 100 scale where 0 is no effect and 100 is complete control). The essentials: as §1

For assay [2], the system named is giant foxtail (Setaria faberii). As to the kind of experiment: Test A preemergence. The settings on record: Setaria faberi, pre-emergence, 240 h; for pest or weed control at 125 g/ha: 125 g ai/ha, preemergence, 0 to 100 scale where 0 is no effect and 100 is complete control, read-out: Foxtail, Giant plant response rating; for pest or weed control at 500 g/ha: 500 g ai/ha, Preemergence, visual injury vs untreated controls after approximately 10 d, read-out: Foxtail, Giant plant response rating (0 to 100 scale where 0 is no effect and 100 is complete control). The essentials: as §1

In assay [3] the test system is pigweed (Amaranthus retroflexus). As to the kind of experiment: Test A preemergence. The settings on record: Amaranthus retroflexus, pre-emergence, 240 h; for pest or weed control at 125 g/ha: 125 g ai/ha, preemergence, 0 to 100 scale where 0 is no effect and 100 is complete control, read-out: Pigweed plant response rating; for pest or weed control at 500 g/ha: 500 g ai/ha, Preemergence, visual injury vs untreated controls after approximately 10 d, read-out: Pigweed plant response rating (0 to 100 scale where 0 is no effect and 100 is complete control).

The subject of assay [4] is ragweed (common ragweed, Ambrosia elatior). As to the kind of experiment: Test A preemergence. The settings on record: Ambrosia artemisiifolia, pre-emergence, 240 h; for pest or weed control at 125 g/ha: 125 g ai/ha, preemergence, 0 to 100 scale where 0 is no effect and 100 is complete control, read-out: Ragweed plant response rating; for pest or weed control at 500 g/ha: 500 g ai/ha, Preemergence, visual injury vs untreated controls after approximately 10 d, read-out: Ragweed plant response rating (0 to 100 scale where 0 is no effect and 100 is complete control). The essentials: as §1

For assay [5], the system named is ryegrass, Italian (Italian ryegrass, Lolium multiflorum). In words: Test A preemergence. To be noted: Lolium multiflorum, pre-emergence, 240 h; for pest or weed control at 125 g/ha: 125 g ai/ha, preemergence, 0 to 100 scale where 0 is no effect and 100 is complete control, read-out: Ryegrass, Italian plant response rating; for pest or weed control at 500 g/ha: 500 g ai/ha, Preemergence, visual injury vs untreated controls after approximately 10 d, read-out: Ryegrass, Italian plant response rating (0 to 100 scale where 0 is no effect and 100 is complete control). An outline of the steps: as §1

Assay [6] concerns Galium (catchweed bedstraw, Galium aparine). As to the kind of experiment: Test A postemergence. To be noted: Galium, post-emergence, 240 h, 125 g ai/ha, postemergence, visual injury rating after approximately 10 d; read-out: Galium plant response rating (0 to 100 scale, 0 no effect, 100 complete control). The essentials: as §1
Assay [7] concerns barnyardgrass (Echinochloa crus-galli). As to the kind of experiment: Test A postemergence. To be noted: Echinochloa crus-galli, post-emergence, 240 h, 125 g ai/ha, postemergence, visual injury rating after approximately 10 d; read-out: Barnyardgrass plant response rating (0 to 100 scale, 0 no effect, 100 complete control). The essentials: as §1
Another assay deals with corn (Zea mays). In words: Test A postemergence. The settings on record: Zea mays, post-emergence, 240 h, 125 g ai/ha, postemergence, visual injury rating after approximately 10 d; read-out: Corn plant response rating (0 to 100 scale, 0 no effect, 100 complete control). The essentials: as §1
For assay [8], the system named is ragweed (common ragweed, Ambrosia elatior). In words: Test A postemergence. The settings on record: Ambrosia artemisiifolia, post-emergence, 240 h, 125 g ai/ha, postemergence, visual injury rating after approximately 10 d; read-out: Ragweed plant response rating (0 to 100 scale, 0 no effect, 100 complete control). The essentials: as §1
The test system of assay [9] is barnyardgrass (Echinochloa crus-galli). As to the kind of experiment: Test B flooded paddy test. The settings on record: Echinochloa crus-galli, Flood, 250 g ai/ha; scale of 0 to 100 where 0 is no effect and 100 is complete control; read-out: Barnyardgrass plant response rating. The essentials: (§2)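 Evaluation by eye, against controls, occurred 13–15 d post-treatment in a greenhouse, using a 0 (no effect) to 100 (complete control) scale. Application was into the paddy water, 3 cm deep over the soil, on 2-leaf plants.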

The subject of assay [10] is ducksalad (Heteranthera limosa). As to the kind of experiment: Test B flooded paddy test. To be noted: Heteranthera limosa, Flood, 250 g ai/ha; scale of 0 to 100 where 0 is no effect and 100 is complete control; read-out: Ducksalad plant response rating. An outline of the steps:
as §2

The subject of a further assay is rice (Oryra sativa). In words: Test B flooded paddy test. To be noted: Oryza sativa, Flood, 250 g ai/ha; scale of 0 to 100 where 0 is no effect and 100 is complete control; read-out: Rice plant response rating. An outline of the steps:
as §2

Assay [11] has as its system sedge, umbrella (small-flower umbrella sedge, Cyperus difformis). As to the kind of experiment: Test B flooded paddy test. To be noted: Cyperus difformis, Flood, 250 g ai/ha; scale of 0 to 100 where 0 is no effect and 100 is complete control; read-out: Sedge, Umbrella plant response rating. The essentials:
as §2

Regarding `Cc1c(F)ccc([C@H]2CNC(=O)[C@@H]2C(=O)Nc2ccccc2S(C)(=O)=O)c1F` [Compound 832], the pest or weed control at 125 g/ha was 90% in the assay with Kochia (Kochia scoparia); 40% in assay [1]; 0% in assay [2]; 0% in assay [3]; 40% in assay [4]; 0% in [5]. For the same compound, the pest or weed control at 125 g/ha amounted to 50% in assay [6], 70% in assay [7] and 20% in [8]. The pest or weed control at 500 g/ha in the assay with Kochia (Kochia scoparia) was 100%; in assay [1], 80%; in assay [2], 80%; in assay [3], 30%; in assay [4] it was 60%; in [5] it was 30%. For the same compound, the plant injury at 125 g/ha in the assay on corn (Zea mays) came to 0%. Also, the pest or weed control at 250 g/ha in assay [9] was 0%; in [10], 100%; in the assay on rice (Oryra sativa), 15%; in assay [11], 0%.
Regarding `CN1C[C@H](c2cc(F)cc(F)c2)[C@@H](C(=O)Nc2ccc(C(F)(F)F)nc2)C1=O` [Compound 870], the pest or weed control at 125 g/ha was found to be 0% in the assay on Kochia (Kochia scoparia); 50% in assay [1]; 20% in [2]; 0% in assay [3]; 0% in assay [4]; 0% in assay [5]. Moreover, the pest or weed control at 125 g/ha in [6], in assay [7] and in [8] was 0% each time. Further, the pest or weed control at 500 g/ha with Kochia (Kochia scoparia) was determined as 0%; in [1], 80%; in assay [2], 50%; in assay [3] it was 0%; in assay [4], 0%; in assay [5], 0%. For the same compound, the plant injury at 125 g/ha in the assay with corn (Zea mays) came to 0%. For the same compound, the pest or weed control at 250 g/ha (in assay [9]; in assay [10]; with rice (Oryra sativa); in [11]) was 0% each time.
For `CN1C[C@H](c2cc(F)c(F)c(F)c2)[C@@H](C(=O)Nc2ccccc2S(C)(=O)=O)C1=O` [Compound 880], the pest or weed control at 125 g/ha in the assay with Kochia (Kochia scoparia) is 70%; in assay [1], 90%; in assay [2], 100%; in assay [3] it was 70%; in assay [4], 50%; in assay [5], 20%. In addition, the figures for the pest or weed control at 125 g/ha in assay [6], in [7] and in [8] were 60%, 90% and 40%, respectively. Besides, the pest or weed control at 500 g/ha was 90% in the assay with Kochia (Kochia scoparia); 100% in assay [1]; 100% in [2]; 90% in [3]; 80% in assay [4]; 70% in [5]. Also, the plant injury at 125 g/ha in the assay with corn (Zea mays) was determined as 20%. For the same compound, the pest or weed control at 250 g/ha in [9] was determined as 60%; in [10], 100%; with rice (Oryra sativa) it was 0%; in [11], 0%.
Turning to `Cc1cc(C)cc([C@H]2CN(C)C(=O)[C@@H]2C(=O)Nc2cccc(F)c2F)c1` [Compound 911], the pest or weed control at 125 g/ha was determined as 90% with Kochia (Kochia scoparia); 90% in assay [1]; 90% in assay [2]; 20% in assay [3]; 0% in assay [4]; 70% in assay [5]. The pest or weed control at 125 g/ha in [6] turned out to be 40%; in assay [7] it was 90%; in assay [8], 0%. Besides, the pest or weed control at 500 g/ha in the assay on Kochia (Kochia scoparia) came to 100%; in [1] it was 100%; in assay [2] it was 100%; in assay [3], 50%; in [4], 60%; in [5] it was 90%. Moreover, the plant injury at 125 g/ha in the assay with corn (Zea mays) is 80%. The pest or weed control at 250 g/ha in [9] was found to be 80%; in assay [10], 75%; with rice (Oryra sativa) it was 0%; in assay [11], 0%.
